# Results reported in patent US7101867B2, “Benzofuran derivatives, their production and use” (Takeda Pharmaceutical Company Limited, priority 1998, dated 2006).
# Test system: Human neuroblastoma SK-N-SH cells
# Assay: Cytoprotection in human neuroblastoma SK-N-SH cells against a PI-3-kinase inhibitor, LY-294002
# Assay type: cell-based
# Settings: test compound 1.0 μM with LY-294002 30 μM; survival by Alamarblue reduction one day after initiation; (A−B)/(C−B)×100
# Experimental: Cytoprotection in human neuroblastoma SK-N-SH cells against a PI-3-kinase inhibitor, LY-294002
# Human neuroblastoma SK-N-SH cells were purchased from American Type Cell Culture (ATCC). DMEM/F-12 culture medium and potassium/magnesium-free phosphate buffer saline (PBS(−)) were purchased from Nikken Biomedical Co., Ltd., N2 additives and EDTA solution from GIBCO BRL Company, fetal bovine serum (FCS) and a mixed solution of penicillin (5000 U/ml) and streptomycin (5 mg/ml) from BioWhittaker Inc., Alamarblue™ reagent from Wako Pure Chemical Industries Ltd., culture flasks from Falcon Company, collagen-coated 96-well multi-plates from Iwaki Glass Co., Ltd., and LY-294002 from Alexis Biochemicals, respectively. As for other reagents, commercially available guaranteed reagents were used.
# By using DMEM/F-12 culture medium which contains 5% FCS, 0.5% N2, 10 mM HEPES, and a 1% mixed solution of penicillin (5000 U/ml) and streptomycin (5 mg/ml), SK-N-SH cells were subcultured in a carbon dioxide incubator under a mixed gas atmosphere consisting of 10% carbon dioxide and 90% air. After being cultivated to a sub-confluent stage, the cells were detached by a PBS(−) solution containing 2.5 mM EDTA and seeded onto collagen-coated 96-well multi-plates in the proportion of 1.0×10^4 cells/100 μl/well. After cultivation for 24 hours, the cells thus prepared were used for the cytoprotection assay.
# (§1) There was removed 80 μl of the culture medium of SK-N-SH cells that was cultivated as described above on 96-wells, collagen-coated, multi-plates and thereto were added at the same time 40 μl each of LY-294002 of the final concentrations of 30 μM and each test compound the final concentrations of that was adjusted to be 1.0 μM, to initiate the cytotoxicity test. Hereupon, each test compound was used after adjusting the concentration to be 10 mM with dimethyl sulfoxide and LY-294002 was used after adjusting the concentration to be 100 mM with dimethyl sulfoxide, each of which was diluted prior to its use in the test.
# The survival activity of nerve cells that were still living one day after initiation of the cytotoxicity test was determined by the activity of the cells to reduce the Alamarblue™ reagent as an index. There was removed 20 μl of the culture medium and 20 μl of Alamarblue™ reagent was added. The amount of Alamarblue™ reagent reduced by the cells over the period of 4 hours was calorimetrically determined (measurement wave length: 570 nm; reference wave length: 600 nm) By using a plate reader (WAKO SPECTRAMAX 250 Microplate Reader). Cytoprotection activity was calculated according to the following equation. Cytoprotection activity of each compound=(A−B)/(C−B)×100(%) • A: The survival activity of the group consisting of a test compound and LY-294002 added • B: The survival activity of the group consisting of LY-294002 added • C: The survival activity of the control group
# The cytoprotection activity of each compound was obtained By using at least 4 wells for every dose of a test compound.
# Cytoprotection in Human Neuroblastoma SK-N-SH Cells Against a PI-3-kinase Inhibitor, LY-294002
# as §1, with “cytotoxicity assay.” for “cytotoxicity test.”
# The survival activity of nerve cells that were still living one day after initiation of the cytotoxicity test was determined by the activity of the cells to reduce the Alamarblue™ reagent as an index. […]
smiles,measurement,value
"Cc1c(C)c2c(c(C)c1NC(=O)c1cccs1)C(c1ccc(C(C)C)cc1)C(C)(C)O2 (stereo not shown) [Example 24b, N-[3-(4-Isopropylphenyl)-2,2,4,6,7-pentamethyl-2,3-dihydro-1-benzofuran-5-yl]-2-thiophenecarboxamide]",Cytoprotection Activity (%),16.4%
"Cc1ccc(C2c3c(C)c(-n4cc5cc6c(cc5c4)OCO6)c(C)c(C)c3OC2(C)C)cc1 (stereo not shown) [Example 14a, 6-[2,2,4,6,7-pentamethyl-3-(4-methylphenyl)-2,3-dihydro-1-benzofuran-5-yl]-6H-[1,3]dioxolo[4,5-f]isoindole]",Cytoprotection Activity (%),26.6%
"COc1cc2c(cc1OC)CN(c1c(C)c(C)c3c(c1C)C(c1ccc(C)cc1)C(C)(C)O3)C2 (stereo not shown) [Example 6a, 5,6-dimethoxy-2-[2,2,4,6,7-pentamethyl-3-(4-methylphenyl)-2,3-dihydro-1-benzofuran-5-yl]isoindoline]",Cytoprotection Activity (%),28.2%
"Cc1c(C)c2c(c(C)c1NC(=O)c1ccc3c(c1)OCO3)C(c1ccc(C(C)C)cc1)C(C)(C)O2 (stereo not shown) [Example 22b, N-[3-(4-Isopropylphenyl)-2,2,4,6,7-pentamethyl-2,3-dihydro-1-benzofuran-5-yl]-1,3-benzodioxol-5-carboxamide]",Cytoprotection Activity (%),12.8%
"COc1ccc(C(=O)Nc2c(C)c(C)c3c(c2C)C(c2ccc(C(C)C)cc2)C2(CCN(C)CC2)O3)cc1 (stereo not shown) [Example 52b, N-[3-(4-Isopropylphenyl)-1′,4,6,7-tetramethylspiro[benzofuran-2(3H),4′-piperidine]-5-yl]-4-methoxybenzamide]",Cytoprotection Activity (%),16.4%
"COc1ccc(CNc2c(C)c(C)c3oc(C)c(-c4ccc(C(C)C)cc4)c3c2C)cc1 [Example 45b, 3-(4-isopropylphenyl)-N-(4-methoxybenzyl)-2,4,6,7-tetramethyl-1-benzofuran-5-amine]",Cytoprotection Activity (%),20.6%
"Cc1c(C)c2c(c(C)c1NC(=O)c1ccc(Cl)cc1)C(c1ccc(C(C)C)cc1)C(C)(C)O2 (stereo not shown) [Example 20b, 4-Chloro-N-[3-(4-isopropylphenyl)-2,2,4,6,7-pentamethyl-2,3-dihydro-1-benzofuran-5-yl]benzamide]",Cytoprotection Activity (%),12.6%
